Measurements reported in US10053427B2, “Crystalline forms of cabozantinib phosphate and cabozantinib hydrochloride” (priority 2015, dated 2018).
Structures can show the parent of a compound that is named as a salt.

How the values were obtained:
[1] = reported in WO2010/083414; cited from earlier work
[2] = Aqueous solubility measurement; format: physicochemical; conditions: thermodynamic from solid; deionized water, shaking ca. 24 h, ambient temperature (ca. 22° C.)
Protocol: Each salt was individually slurried in deionized water and subjected to shaking for ca. 24 h at ambient temperature (ca. 22° C.). The resulting saturated solutions were filtered and analyzed by HPLC analysis. XRPD analysis was carried out on any solid retained after the solubility experiment.

[3] = Dynamic vapour sorption (DVS), water absorption; format: physicochemical; conditions: between 20% and 70% RH
Protocol: Approximately 10-20 mg of sample was placed into a vapour sorption balance pan and loaded into a DVS-1 dynamic vapour sorption balance by Surface Measurement Systems. The sample was subjected to a ramping profile from 20-90% relative humidity (RH) at 10% increments, maintaining the sample at each step until a stable weight had been achieved (99.5% step completion). After completion of the sorption cycle, the sample was dried using the same procedure, but all the way down to 0% RH and finally taken back to the starting point of 20% RH. The weight change during the sorption/desorption cycles were plotted, allowing for the hygroscopic nature of the sample to be determined.

[4] = Karl Fischer coulometric titration (water content); format: physicochemical
Protocol: Ca. 10-20 mg of solid material was accurately weighed into a container and the weight noted. The solid was then manually introduced into the titration cell of a Mettler Toledo C30 Compact Titrator. The titration was initiated once the sample had fully dissolved in the cell. The vial was back-weighed after the addition of the solid and the weight of the added solid entered into the instrument. The water content was calculated automatically by the instrument as a percentage and the data printed.

[5] = humidity (75%) and high temperature (40° C.); reported in WO2010/083414; cited from earlier work

Which Hygroscopicity [1] does the source give for `COc1cc2nccc(Oc3ccc(NC(=O)C4(C(=O)Nc5ccc(F)cc5)CC4)cc3)c2cc1OC` [(L)-malate salt] here?
The Hygroscopicity was “non-hygroscopic”.

With `COc1cc2nccc(Oc3ccc(NC(=O)C4(C(=O)Nc5ccc(F)cc5)CC4)cc3)c2cc1OC.O=P(O)(O)O` [Cabozantinib phosphate Form A, N-{4-[(6,7-dimethoxy-4-quinolinyl)oxy]phenyl}-N′-(4-fluorophenyl)-1,1-cyclopropanedicarboxamide phosphate] as the compound, how does the solubility at 24 h [2] read?
The solubility at 24 h was 90 µg/mL.

And the Water absorption ([3]; DVS)?
Its Water absorption is 1%.

What about the “KF analysis water content” value [4] of the same compound?
Its value is 0.5 weight-%.

With `COc1cc2nccc(Oc3ccc(NC(=O)C4(C(=O)Nc5ccc(F)cc5)CC4)cc3)c2cc1OC.Cl` [Cabozantinib hydrochloride Form A-1, N-{4-[(6,7-dimethoxy-4-quinolinyl)oxy]phenyl}-N′-(4-fluorophenyl)-1,1-cyclopropanedicarboxamide hydrochloride] as the compound, how does the solubility at 24 h [2] read?
The solubility at 24 h was 210 µg/mL.

What about the “Water absorption (DVS)” value ([3]; DVS) of the same compound?
The value was 0.07 weight-%.

And the “Hygroscopicity (DVS)” value [3]?
Its value is “non hygroscopic”.

With `COc1cc2nccc(Oc3ccc(NC(=O)C4(C(=O)Nc5ccc(F)cc5)CC4)cc3)c2cc1OC` [cabozantinib hydrochloride salt] as the compound, how does the “Physical stability (hydrate formation / phase change)” value [5] read?
Its value is “Possible hydrate formation and a phase change”.
